Laboratory results as given in patent US20070225333A1, “3-Heterocyclyl-4-Phenyl-Triazole Derivatives as Inhibitors of the Vasopressin Via Receptor” (priority 2004, published 2007).
pKi: −log10 of the molar value.

Biological target: T1, human V1A receptor (Homo sapiens, UniProt P37288)
T1 construct: expressed in transfected cells; host or cells: CHO cells (CHO-hV1A line provided by Marc Thibonnier, Case Western Reserve University)
Experiment: V1A filter binding assay ([3H]-AVP binding to CHO-hV1A membranes)
Conditions: Ki by Cheng-Prusoff
Method: 1.0 V1A Filter Binding Assay
Receptor binding assays were performed on cellular membranes prepared from CHO cells stably expressing the human V1A receptor, (CHO-hV1A). The CHO-hV1A cell line was kindly provided under a licensing agreement by Marc Thibonnier, Dept. of Medicine, Case Western Reserve University School of Medicine, Cleveland, Ohio. CHO-hV1A cells were routinely maintained at 37° C. in humidified atmosphere with 5% CO2 in DMEM/Hams F12 nutrient mix supplemented with 10 % fetal bovine serum, 2 mM L-glutamine, 15 mM HEPES and 400 μg/ml G418. For bulk production of cell pellets, adherent CHO-hV1A cells were grown to confluency of 90-100% in 850 cm^2 roller bottles containing a medium of DMEM/Hams F12 Nutrient Mix supplemented with 10% fetal bovine serum, 2 mM L-glutamine and 15 mM HEPES. Confluent CHO-hV1A cells were washed with phosphate-buffered saline (PBS), harvested into ice cold PBS and centrifuged at 1,000 rpm. Cell pellets were stored at −80° C. until use. Cell pellets were thawed on ice and homogenised in membrane preparation buffer consisting of 50 mM Tris-HCl, pH 7.4, 5 mM MgCl2 and supplemented with a protease inhibitor cocktail, (Roche). The cell homogenate was centrifuged at 1000 rpm, 10 min, 4° C. and the supernatant was removed and stored on ice. The remaining pellet was homogenised and centrifuged as before. The supernatants were pooled and centrifuged at 25,000× g for 30 min at 4° C. The pellet was resuspended in freezing buffer consisting of 50 mM Tris-HCl, pH 7.4, 5 mM MgCl2 and 20% glycerol and stored in small aliquots at −80° C. until use. Protein concentration was determined using Bradford reagent and BSA as a standard.
Protein linearity followed by saturation binding studies were performed on each new batch of membrane. Membrane concentration was chosen that gave specific binding on the linear portion of the curve. Saturation binding studies were then performed using various concentrations of [^3H]-arginine vasopressin, [^3H]-AVP (0.05 nM-100 nM) and the Kd and Bmax determined.
Compounds were tested for their effects on [^3H]-AVP binding to CHO-hV1A membranes, (^3H-AVP; specific activity 65.5 Ci/mmol; NEN Life Sciences). Compounds were solubilised in dimethylsulfoxide (DMSO) and diluted to working concentration of 10% DMSO with assay buffer containing 50 mM Tris-HCL pH 7.4, 5 mM MgCl2 and 0.05% BSA. […] The binding reaction was initiated by the addition of 200 μl membrane and the plates were gently shaken for 60 min at room temperature. The reaction was terminated by rapid filtration using a Filtermate Cell Harvester (Packard Instruments) through a 96-well GF/B UniFilter Plate which had been pre-soaked in 0.5% polyethyleneimine to prevent peptide sticking. The filters were washed three times with 1 ml ice cold wash buffer containing 50 mM Tris-HCL pH 7.4 and 5 mM MgCl2. The plates were dried and 50 μl Microscint-0 (Packard instruments) was added to each well. The plates were sealed and counted on a TopCount Microplate Scintillation Counter (Packard Instruments). Non-specific binding (NSB) was determined using 1 μM unlabelled d(CH2)5Tyr(Me)AVP ([β-mercapto-β,β-cyclopentamethylenepropionyl,0-Me-Tyr^2,Arg^8]-vasopressin) (βMCPVP), (Sigma). The radioligand binding data was analysed using a four parameter logistic equation with the min forced to 0%. The slope was free fitted and fell between −0.75 and −1.25 for valid curves. Specific binding was calculated by subtracting the mean NSB cpm from the mean Total cpm. For test compounds the amount of ligand bound to the receptor was expressed as % bound=(sample cpm−mean NSB cpm)/specific binding cpm ×100. The % bound was plotted against the concentration of test compound and a sigmoidal curve was fitted. The inhibitory dissociation constant (Ki) was calculated using the Cheng-Prusoff equation: Ki=IC50/(1+[L]/Kd) where [L] is the concentration of ligand present in the well and Kd is the dissociation constant of the radioligand obtained from Scatchard plot analysis. […]

T1 sequence (P37288 whole entry): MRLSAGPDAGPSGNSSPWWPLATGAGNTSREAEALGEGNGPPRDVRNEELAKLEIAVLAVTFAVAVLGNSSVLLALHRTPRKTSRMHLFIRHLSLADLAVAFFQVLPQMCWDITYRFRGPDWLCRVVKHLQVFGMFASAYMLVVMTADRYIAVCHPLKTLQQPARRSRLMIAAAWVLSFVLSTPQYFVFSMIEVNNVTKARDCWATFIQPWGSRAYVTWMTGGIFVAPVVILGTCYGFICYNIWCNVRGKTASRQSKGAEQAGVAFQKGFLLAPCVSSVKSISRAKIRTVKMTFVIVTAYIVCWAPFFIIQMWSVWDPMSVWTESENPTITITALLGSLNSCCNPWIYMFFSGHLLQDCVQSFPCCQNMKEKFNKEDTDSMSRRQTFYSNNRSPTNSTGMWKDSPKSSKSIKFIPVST

| SMILES | pKi |
| --- | --- |
| COCc1nnc(N2CCC(Oc3ccccn3)CC2)n1-c1ccc(Cl)cc1 [Example 33, 2-({1-[4-(4-Chlorophenyl)-5-(methoxymethyl)-4H-1,2,4-triazol-3-yl]piperidin-4-yl}oxy)pyridine] | 8.89 |
| Cc1nnc(N2CCC(N(C)c3ncccn3)CC2)n1-c1ccc(Cl)cc1 [Example 41, N-{1-[4-(4-Chlorophenyl)-5-methyl-4H-1,2,4-triazol-3-yl]-piperidin-4-yl}-N-methylpyrimidin-2-amine] | 8.83 |
| Cc1nnc(N2CCC(Oc3ccccc3)CC2)n1-c1ccc(Cl)cc1 [Example 26, 1-[4-(4-Chloro-phenyl)-5-methyl-4H-[1,2,4]triazole-3-yl]-4-phenoxy-piperidine] | 8.50 |
| Clc1ccc(-n2c(Cn3nccn3)nnc2N2CCC(Oc3ncccn3)CC2)cc1 [Example 34, 2-{1-[4-(4-Chloro-phenyl)-5-[1,2,3]triazole-2-ylmethyl-4H-[1,2,4]triazole-3-yl]-piperidin-4-yloxy}-pyrimidine] | 8.97 |

Stronger by pKi, values ahead:

| pKi | SMILES |
| --- | --- |
| 9.02 | CCOCc1nnc(N2CCC(Oc3ncccn3)CC2)n1-c1ccc(Cl)cc1 [Example 38] |
| 9.30 | Cc1nnc(N2CCC(N(C)c3ccccn3)CC2)n1-c1ccc(Cl)cc1 [Example 40, N-{1-[4-(4-Chlorophenyl)-5-methyl-4H-1,2,4-triazol-3-yl]-piperidin-4-yl}-N-methylpyridin-2-amine] |
